In ChEMBL document CHEMBL3879915, “Methods of inhibiting PRMT5” (2014):

Columns and labels:
[1] = biological target: Protein arginine N-methyltransferase 5 (Homo sapiens, UniProt O14744); assay: Inhibition of PRMT5 in human Z138 cells assessed as decrease in di-methyl arginine levels after 96 hrs by Western blot method; type: cell-based
[2] = Antiproliferative activity against human Z138 cells assessed as inhibition of cell viability after 5 days by Cell-Titer Glo assay; type: functional, cell-based; conditions: Z-138, 120 h
PRMT5/MEP50 complex = PRMT5/MEP50 complex (Homo sapiens, UniProt O14744); assay: Inhibition of recombinant human fetal brain FLAG-tagged PRMT5/full length human testis 6His-tagged MEP50 expressed in baculovirus infected insect Sf9 cells using human histone H4 (1 to 15 residues) as substrate preincubated for 30 mins followed by [3H]-SAM addition
PRMT5/MEP50 complex, sequence (O14744 whole entry, the tested form may be a part): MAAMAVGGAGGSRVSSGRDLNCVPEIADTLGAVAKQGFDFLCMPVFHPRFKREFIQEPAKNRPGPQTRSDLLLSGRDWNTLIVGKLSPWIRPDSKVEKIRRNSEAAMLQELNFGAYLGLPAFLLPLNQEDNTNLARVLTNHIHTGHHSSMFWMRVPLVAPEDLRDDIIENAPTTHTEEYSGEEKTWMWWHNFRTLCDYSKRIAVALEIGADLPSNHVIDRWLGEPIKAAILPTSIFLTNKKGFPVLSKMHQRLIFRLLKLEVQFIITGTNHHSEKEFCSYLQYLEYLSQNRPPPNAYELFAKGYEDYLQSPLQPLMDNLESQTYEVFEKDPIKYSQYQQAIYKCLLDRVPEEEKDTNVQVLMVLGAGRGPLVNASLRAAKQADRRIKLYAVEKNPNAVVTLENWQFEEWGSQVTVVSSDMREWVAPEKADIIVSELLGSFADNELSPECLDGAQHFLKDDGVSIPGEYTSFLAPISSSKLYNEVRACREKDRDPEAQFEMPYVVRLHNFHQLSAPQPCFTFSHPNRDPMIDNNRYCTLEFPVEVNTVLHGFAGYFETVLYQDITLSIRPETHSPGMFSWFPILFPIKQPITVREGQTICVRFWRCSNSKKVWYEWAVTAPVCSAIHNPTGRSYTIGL
PRMT5/MEP50 complex, sequence (Q9BQA1 whole entry, further chain, the tested form may be a part): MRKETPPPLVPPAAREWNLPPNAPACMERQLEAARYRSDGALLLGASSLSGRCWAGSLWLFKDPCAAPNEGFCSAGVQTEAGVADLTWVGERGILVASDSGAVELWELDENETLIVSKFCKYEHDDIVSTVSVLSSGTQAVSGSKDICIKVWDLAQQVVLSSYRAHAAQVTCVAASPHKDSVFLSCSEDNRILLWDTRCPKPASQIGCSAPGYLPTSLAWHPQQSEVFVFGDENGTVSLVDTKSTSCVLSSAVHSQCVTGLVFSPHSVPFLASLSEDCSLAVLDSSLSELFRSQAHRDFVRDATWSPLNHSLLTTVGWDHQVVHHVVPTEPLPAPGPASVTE

Protein arginine N-methyltransferase 5, sequence (O14744 whole entry): as the sequence (O14744 whole entry, the tested form may be a part) above

Row | Structure (SMILES) | EC50 [1] [µM] | IC50 (PRMT5/MEP50 complex) [µM] | EC50 [2] [µM]
1 | O=C(COc1cccc2cccnc12)NCC(O)CN1CCc2ccccc2C1 (stereo unspecified) | < 0.1 | < 0.1 | 0.101 to 1
2 | CC(C)(C)OCc1cccc(-c2cccc(OCC(O)CN3CCc4ccccc4C3)c2)c1 (stereo unspecified) | 1 to 10 | 0.101 to 1 | > 20
3 | Cn1ccc2ccc(-c3cccc(OCC(O)CN4CCc5ccccc5C4)c3)cc21 (stereo unspecified) | 1 to 10 | 0.101 to 1 | 10 to 40
4 | N#Cc1cccc(-c2cccc(OCC(O)CN3CCc4ccccc4C3)c2)c1 (stereo unspecified) | 1 to 10 | 0.101 to 1 | > 20
5 | CS(=O)(=O)c1ccccc1-c1cccc(OCC(O)CN2CCc3ccccc3C2)c1 (stereo unspecified) | 1 to 10 | 0.101 to 1 | > 20
6 | OC(COc1cccc(-c2cnc3ccccc3c2)c1)CN1CCc2ccccc2C1 (stereo unspecified) | 1 to 10 | 0.101 to 1 | 10 to 40
7 | OC(COc1cccc(-c2ccc3cnoc3c2)c1)CN1CCc2ccccc2C1 (stereo unspecified) | 10 to 40 | 1 to 10 | > 20
8 | N#Cc1ccc(-c2cccc(OCC(O)CN3CCc4ccccc4C3)c2)cc1 (stereo unspecified) | 1 to 10 | 0.101 to 1 | 10 to 40
9 | CN(C)c1ncccc1OCC(=O)NCC(O)CN1CCc2ccccc2C1 (stereo unspecified) | 1 to 10 | 0.101 to 1 | > 20
10 | NC(=O)c1cccc(C(=O)NCC(O)CN2CCc3ccccc3C2)c1 (stereo unspecified) | 1 to 10 | 0.101 to 1 | > 20
11 | O=C(COc1cccc2cccnc12)NC[C@@H](O)CN1CCc2ccccc2C1 | < 0.1 | < 0.1 | 0.101 to 1
12 | N#Cc1ccccc1-c1cccc(OCC(O)CN2CCc3ccccc3C2)c1 (stereo unspecified) | 1 to 10 | 0.101 to 1 | 10 to 40
13 | Cc1ccc(OCC(=O)NCC(O)CN2CCc3ccccc3C2)cc1 (stereo unspecified) | 10 to 50 | 0.101 to 1 | 10 to 50
14 | OCc1cccc(-c2cccc(OCC(O)CN3CCc4ccccc4C3)c2)c1 (stereo unspecified) | 1 to 10 | 0.101 to 1 | 10 to 40
15 | COc1ccc(-c2cccc(OCC(O)CN3CCc4ccccc4C3)c2)c(Cl)c1 (stereo unspecified) | 1 to 10 | 0.101 to 1 | 10 to 40
16 | OC(COc1cccc(-c2ccc3c(c2)OCCO3)c1)CN1CCc2ccccc2C1 (stereo unspecified) | 1 to 10 | 0.101 to 1 | 10 to 40
17 | OC(COc1cccc(-c2ccc3nc[nH]c3c2)c1)CN1CCc2ccccc2C1 (stereo unspecified) | 1 to 10 | 0.101 to 1 | 10 to 40
18 | O=C(c1cccc(-c2cccc(OCC(O)CN3CCc4ccccc4C3)c2)c1)N1CCOCC1 (stereo unspecified) | 1 to 10 | 0.101 to 1 | > 20
19 | O=C(NCC(O)CN1CCc2ccccc2C1)c1ccccc1-c1ccccn1 (stereo unspecified) | 1 to 10 | 0.101 to 1 | > 20
20 | O=C1NCc2ccc(-c3cccc(OCC(O)CN4CCc5ccccc5C4)c3)cc21 (stereo unspecified) | 1 to 10 | 0.101 to 1 | 10 to 40
21 | COC(=O)c1cncc(-c2cccc(OCC(O)CN3CCc4ccccc4C3)c2)c1 (stereo unspecified) | > 20 | 1 to 10 | > 20
22 | CC(=O)N1CCN(S(=O)(=O)c2ccccc2OCC(=O)NCC(O)CN2CCc3ccccc3C2)CC1 (stereo unspecified) | 1 to 10 | 0.101 to 1 | > 20
23 | Cn1cnc2ccc(-c3ccnc(NC[C@@H](O)CN4CCc5ccccc5C4)c3)cc21 | 1 to 10 | 0.101 to 1 | 1 to 10
24 | CN1CCc2cccc(OCC(=O)NCC(O)CN3CCc4ccccc4C3)c2C1 (stereo unspecified) | 1 to 10 | 0.101 to 1 | > 20
25 | COc1cccc(-c2cccc(OCC(O)CN3CCc4ccccc4C3)c2)c1 (stereo unspecified) | 1 to 10 | 0.101 to 1 | 10 to 40
26 | CN(C)c1ccc2cccc(OCC(=O)NC[C@@H](O)CN3CCc4ccccc4C3)c2n1 | 0.101 to 1 | < 0.1 | 1 to 10
27 | OC(COc1cccc(-c2ccccc2Cl)c1)CN1CCc2ccccc2C1 (stereo unspecified) | 1 to 10 | 0.101 to 1 | 10 to 40

Further lines, with some results ahead:

Row | EC50 [1] [µM] | IC50 (PRMT5/MEP50 complex) [µM] | Structure (SMILES) | EC50 [2] [µM]
28 | 0.101 to 1 | < 0.1 | Cn1ncc2ccc(-c3ccnc(NCC(O)CN4CCc5ccccc5C4)c3)cc21 (stereo unspecified) | 1 to 10
29 | < 0.1 | < 0.1 | CS(=O)(=O)N1CCc2c(cccc2OCC(=O)NCC(O)CN2CCc3ccccc3C2)C1 (stereo unspecified) | 1 to 10
30 | 0.101 to 1 | 0.101 to 1 | CC(=O)Nc1ccc(C(=O)NCC(O)CN2CCc3ccccc3C2)cc1 (stereo unspecified) | > 20
31 | 0.101 to 1 | < 0.1 | C[C@@H](Oc1cccc2cccnc12)C(=O)NC[C@@H](O)CN1CCc2ccccc2C1 | 1 to 10
32 | 0.101 to 1 | < 0.1 | OC(COc1cccc(-c2cccc3[nH]cnc23)c1)CN1CCc2ccccc2C1 (stereo unspecified) | 10 to 40
33 | < 0.1 | < 0.1 | C[C@@H](Oc1cccc2cccnc12)C(=O)NC[C@H](O)CN1CCc2ccccc2C1 | 0.101 to 1
34 | < 0.1 | < 0.1 | CS(=O)(=O)c1ccccc1OCC(=O)NCC(O)CN1CCc2ccccc2C1 (stereo unspecified) | 1 to 10
35 | < 0.1 | < 0.1 | CCN(c1cccc(C(=O)NCC(O)CN2CCc3ccccc3C2)c1C)C1CCOCC1 (stereo unspecified) | 1 to 10
36 | 0.101 to 1 | < 0.1 | CN1CCC(n2ncc3cc(OCC(=O)NCC(O)CN4CCc5ccccc5C4)ccc32)C1 (stereo unspecified) | 10 to 50
37 | < 0.1 | < 0.1 | CC(=O)N1CCc2c(cccc2OCC(=O)NCC(O)CN2CCc3ccccc3C2)C1 (stereo unspecified) | 1 to 10
38 | 0.101 to 1 | 0.101 to 1 | O=C(NCC(O)CN1CCc2ccccc2C1)c1ccccn1 (stereo unspecified) | > 20
39 | 0.101 to 1 | 0.101 to 1 | Cn1cncc1C(=O)Nc1cccc(OC[C@H](O)CN2CCc3ccccc3C2)c1 | 10 to 40
40 | 0.101 to 1 | < 0.1 | CN1CCN(c2ccccc2OCC(=O)NC[C@H](O)CN2CCc3ccccc3C2)CC1 | 1 to 10
41 | 0.101 to 1 | < 0.1 | CS(=O)(=O)Nc1cccc(OCC(=O)NCC(O)CN2CCc3ccccc3C2)c1 (stereo unspecified) | 1 to 10
42 | 0.101 to 1 | < 0.1 | O=C1CN(c2cccc3cccnc23)CCN1CC(O)CN1CCc2ccccc2C1 (stereo unspecified) | 1 to 10
43 | 0.101 to 1 | < 0.1 | O=C(NCC(O)CN1CCc2ccccc2C1)c1cccc(N2CCOCC2)c1 (stereo unspecified) | 1 to 10
44 | 0.101 to 1 | < 0.1 | O=C1CN(c2cccc(F)c2)CCN1CC(O)CN1CCc2ccccc2C1 (stereo unspecified) | > 20
45 | 0.101 to 1 | 0.101 to 1 | O=C(COc1cccc(F)c1)NCC(O)CN1CCc2ccccc2C1 (stereo unspecified) | 10 to 50
46 | 0.101 to 1 | < 0.1 | O=C(NCC(O)CN1CCc2ccccc2C1)c1cccc(C2CCNC2)c1 (stereo unspecified) | > 20
47 | 0.101 to 1 | 0.101 to 1 | CN(C)c1ccccc1N1CCN(C[C@H](O)CN2CCc3ccccc3C2)C(=O)C1 | 10 to 50

Row | EC50 [1] [µM] | IC50 (PRMT5/MEP50 complex) [µM] | Structure (SMILES) | EC50 [2] [µM]
48 | < 0.1 | < 0.1 | O=C1CN(c2cccc(N3CCOCC3)c2)CCN1CC(O)CN1CCc2ccccc2C1 (stereo unspecified) | 1 to 10
49 | 0.101 to 1 | 0.101 to 1 | O=C(Cn1cnc2ccc(-c3cccc(OCC(O)CN4CCc5ccccc5C4)c3)cc21)N1CCCC1 (stereo unspecified) | 10 to 40
50 | 0.101 to 1 | 0.101 to 1 | Cn1cnc2ccc(-c3cncc(NCC(O)CN4CCc5ccccc5C4)n3)cc21 (stereo unspecified) | > 20
51 | 0.101 to 1 | < 0.1 | CN1CCc2c(cccc2OCC(=O)NCC(O)CN2CCc3ccccc3C2)C1 (stereo unspecified) | 1 to 10
52 | 0.101 to 1 | < 0.1 | C[C@H](Oc1cccc2cccnc12)C(=O)NC[C@H](O)CN1CCc2ccccc2C1 | 1 to 10
53 | 0.101 to 1 | 0.101 to 1 | CN(c1cccc(OCC(=O)NCC(O)CN2CCc3ccccc3C2)c1)S(C)(=O)=O (stereo unspecified) | > 20
54 | 0.101 to 1 | 0.101 to 1 | NC(=O)c1ccccc1OCC(=O)NCC(O)CN1CCc2ccccc2C1 (stereo unspecified) | > 20
55 | 0.101 to 1 | 0.101 to 1 | CN1CCN(C(=O)Cn2ccc3cnc(-c4cccc(OCC(O)CN5CCc6ccccc6C5)c4)nc32)CC1 (stereo unspecified) | 10 to 40
56 | 0.101 to 1 | < 0.1 | OC(COc1cccc(-c2ncc3ccn(C4CCNCC4)c3n2)c1)CN1CCc2ccccc2C1 (stereo unspecified) | 1 to 10
57 | 0.101 to 1 | < 0.1 | OC(CNc1cc(-c2ccc3ncn(C4COC4)c3c2)ccn1)CN1CCc2ccccc2C1 (stereo unspecified) | 1 to 10
58 | 0.101 to 1 | < 0.1 | O[C@@H](COc1cccc(-c2cccc3cccnc23)c1)CN1CCc2ccccc2C1 | 1 to 10
59 | 0.101 to 1 | 0.101 to 1 | NS(=O)(=O)c1ccc(C(=O)NCC(O)CN2CCc3ccccc3C2)cc1 (stereo unspecified) | > 20
60 | 0.101 to 1 | 0.101 to 1 | CN1CCN(C(=O)Cn2cnc3ccc(-c4cccc(OCC(O)CN5CCc6ccccc6C5)c4)cc32)CC1 (stereo unspecified) | 10 to 40
61 | 0.101 to 1 | 0.101 to 1 | CC(=O)N1CCC(n2cnc3ccc(-c4ccnc(NCC(O)CN5CCc6ccccc6C5)c4)cc32)CC1 (stereo unspecified) | 1 to 10
62 | 0.101 to 1 | < 0.1 | OC(CNc1cc(-c2ccc3ncn(C4CCNC4)c3c2)ccn1)CN1CCc2ccccc2C1 (stereo unspecified) | 1 to 10
63 | < 0.1 | < 0.1 | CN(C)c1ccccc1OCC(=O)NCC(O)CN1CCc2ccccc2C1 (stereo unspecified) | 1 to 10
64 | 0.101 to 1 | 0.101 to 1 | CC(=O)Nc1ccccc1OCC(=O)NCC(O)CN1CCc2ccccc2C1 (stereo unspecified) | > 20
65 | < 0.1 | < 0.1 | O=C(COc1ccccc1S(=O)(=O)N1CCNCC1)NCC(O)CN1CCc2ccccc2C1 (stereo unspecified) | 1 to 10
66 | 0.101 to 1 | 0.101 to 1 | O=C(COc1ccccc1C1CCCNC1)NCC(O)CN1CCc2ccccc2C1 (stereo unspecified) | 1 to 10
67 | 0.101 to 1 | < 0.1 | CN1CCN(S(=O)(=O)c2ccccc2OCC(=O)NCC(O)CN2CCc3ccccc3C2)CC1 (stereo unspecified) | 10 to 50
